Measurements reported in PubChem BioAssay (NCI).
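Grown in 96-well plates, cells were treated for 48 hours with each compound at five concentrations. Insufficient inhibition: endpoint recorded as highest concentration tested. At the TGI there is no net growth.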

How the values were obtained:
Test in all cases: growth of human tumour cells (NCI), 48 h
SK-MEL-2 melanoma = system: SK-MEL-2 melanoma
HCT-15 colon = system: HCT-15 colon
XF 498 CNS = system: XF 498 CNS
OVCAR-4 ovarian = system: OVCAR-4 ovarian
TK-10 renal = system: TK-10 renal
ACHN renal = system: ACHN renal
HOP-92 NSCLC = system: HOP-92 NSCLC
EKVX NSCLC = system: EKVX NSCLC
K-562 leukemia = system: K-562 leukemia
CAKI-1 renal = system: CAKI-1 renal
NCI-H460 lung = system: NCI-H460 lung
LXFL 529 NSCLC = system: LXFL 529 NSCLC
CCRF-CEM leukemia = system: CCRF-CEM leukemia
COLO 205 colon = system: COLO 205 colon
OVCAR-3 ovarian = system: OVCAR-3 ovarian
SK-OV-3 ovarian = system: SK-OV-3 ovarian
SK-MEL-5 melanoma = system: SK-MEL-5 melanoma
HL-60(TB) leukemia = system: HL-60(TB) leukemia
MALME-3M melanoma = system: MALME-3M melanoma
OVCAR-8 ovarian = system: OVCAR-8 ovarian
NCI-H522 lung = system: NCI-H522 lung
786-0 renal = system: 786-0 renal
IGROV1 ovarian = system: IGROV1 ovarian
DMS 114 small cell lung = system: DMS 114 small cell lung
U251 CNS = system: U251 CNS
RPMI-8226 leukemia = system: RPMI-8226 leukemia
DLD-1 colon = system: DLD-1 colon
SF-295 CNS = system: SF-295 CNS
OVCAR-5 ovarian = system: OVCAR-5 ovarian
SF-539 CNS = system: SF-539 CNS
RXF-631 renal = system: RXF-631 renal
NCI-H226 lung = system: NCI-H226 lung
DMS 273 small cell lung = system: DMS 273 small cell lung
A549 NSCLC = system: A549 NSCLC
UACC-62 melanoma = system: UACC-62 melanoma
KM12 colon = system: KM12 colon
SNB-19 CNS = system: SNB-19 CNS
HT29 colon = system: HT29 colon
HCT-116 colon = system: HCT-116 colon
SF-268 CNS = system: SF-268 CNS
UO-31 renal = system: UO-31 renal
HOP-62 NSCLC = system: HOP-62 NSCLC
HCC-2998 colon = system: HCC-2998 colon
MOLT-4 leukemia = system: MOLT-4 leukemia
SW-620 colon = system: SW-620 colon
LOX IMVI melanoma = system: LOX IMVI melanoma
NCI-H23 lung = system: NCI-H23 lung
SK-MEL-28 melanoma = system: SK-MEL-28 melanoma
M19-MEL melanoma = system: M19-MEL melanoma
SNB-78 CNS = system: SNB-78 CNS
SNB-75 CNS = system: SNB-75 CNS
A498 renal = system: A498 renal
HOP-18 NSCLC = system: HOP-18 NSCLC
UACC-257 melanoma = system: UACC-257 melanoma
SN12C renal = system: SN12C renal
SR leukemia = system: SR leukemia
KM20L2 colon = system: KM20L2 colon
M14 melanoma = system: M14 melanoma
RXF 393 renal = system: RXF 393 renal

Measured: TGI

CCOC(=O)[C@]12C3C=CC(C3)C1C(=O)C1OC12 (some centres not stated)
> 100 µM: SK-MEL-2 melanoma | HCT-15 colon | XF 498 CNS | OVCAR-4 ovarian | TK-10 renal | ACHN renal | HOP-92 NSCLC | EKVX NSCLC | K-562 leukemia | CAKI-1 renal | NCI-H460 lung | LXFL 529 NSCLC | CCRF-CEM leukemia | COLO 205 colon | OVCAR-3 ovarian | SK-OV-3 ovarian | SK-MEL-5 melanoma | HL-60(TB) leukemia | MALME-3M melanoma | OVCAR-8 ovarian | NCI-H522 lung | 786-0 renal | IGROV1 ovarian | DMS 114 small cell lung | U251 CNS | RPMI-8226 leukemia | DLD-1 colon | SF-295 CNS | OVCAR-5 ovarian | SF-539 CNS | RXF-631 renal | NCI-H226 lung | DMS 273 small cell lung | A549 NSCLC | UACC-62 melanoma | KM12 colon | SNB-19 CNS | HT29 colon | HCT-116 colon | SF-268 CNS | UO-31 renal | HOP-62 NSCLC | HCC-2998 colon | MOLT-4 leukemia | SW-620 colon | LOX IMVI melanoma | NCI-H23 lung | SK-MEL-28 melanoma | M19-MEL melanoma | SNB-78 CNS | SNB-75 CNS | A498 renal | HOP-18 NSCLC | UACC-257 melanoma | SN12C renal

CCOC(=O)NC(=O)c1cn(CCN2CCN(C(=O)CCCCCCCCCCNc3ncnc4c3ncn4C3OC(CO)C(O)C3O)CC2)c(=O)[nH]c1=O (configuration not stated)
> 100 µM: SK-MEL-2 melanoma | HCT-15 colon | XF 498 CNS | TK-10 renal | ACHN renal | HOP-92 NSCLC | K-562 leukemia | CAKI-1 renal | NCI-H460 lung | LXFL 529 NSCLC | CCRF-CEM leukemia | COLO 205 colon | SK-OV-3 ovarian | SK-MEL-5 melanoma | HL-60(TB) leukemia | MALME-3M melanoma | OVCAR-8 ovarian | 786-0 renal | IGROV1 ovarian | DMS 114 small cell lung | U251 CNS | DLD-1 colon | SF-295 CNS | RXF-631 renal | A549 NSCLC | SR leukemia | UACC-62 melanoma | KM20L2 colon | KM12 colon | SNB-19 CNS | HT29 colon | HCT-116 colon | SF-268 CNS | UO-31 renal | HOP-62 NSCLC | M14 melanoma | HCC-2998 colon | MOLT-4 leukemia | SW-620 colon | LOX IMVI melanoma | NCI-H23 lung | SK-MEL-28 melanoma | SNB-78 CNS | SNB-75 CNS | A498 renal | UACC-257 melanoma | SN12C renal

O=c1[nH]c2cc([N+](=O)[O-])ccc2nc1/C(=N/Nc1ccccc1)C(O)c1ccc(Cl)cc1Cl (configuration not stated)
> 100 µM: SK-MEL-2 melanoma | HCT-15 colon | XF 498 CNS | OVCAR-4 ovarian | TK-10 renal | ACHN renal | HOP-92 NSCLC | EKVX NSCLC | K-562 leukemia | NCI-H460 lung | CCRF-CEM leukemia | COLO 205 colon | OVCAR-3 ovarian | SK-OV-3 ovarian | SK-MEL-5 melanoma | HL-60(TB) leukemia | MALME-3M melanoma | OVCAR-8 ovarian | NCI-H522 lung | 786-0 renal | IGROV1 ovarian | U251 CNS | RPMI-8226 leukemia | DLD-1 colon | SF-295 CNS | OVCAR-5 ovarian | SF-539 CNS | RXF-631 renal | NCI-H226 lung | DMS 273 small cell lung | RXF 393 renal | A549 NSCLC | UACC-62 melanoma | KM20L2 colon | KM12 colon | HT29 colon | HCT-116 colon | SF-268 CNS | UO-31 renal | HOP-62 NSCLC | M14 melanoma | HCC-2998 colon | MOLT-4 leukemia | LOX IMVI melanoma | NCI-H23 lung | M19-MEL melanoma | SNB-78 CNS | SNB-75 CNS | A498 renal | HOP-18 NSCLC | UACC-257 melanoma | SN12C renal
44.7 µM: DMS 114 small cell lung
82.4 µM: SR leukemia

Cc1cc(C)nc(NS(=O)(=O)c2ccc(NC(=O)c3cccc4c(Nc5ccc(S(=O)(=O)N=C(N)N)cc5)c5ccccc5nc34)cc2)n1
99.8 µM: SK-MEL-28 melanoma
83.2 µM: EKVX NSCLC
55.2 µM: CAKI-1 renal
22.6 µM: HCC-2998 colon
42.4 µM: SW-620 colon
60 µM: UACC-257 melanoma
59.1 µM: LXFL 529 NSCLC
35.5 µM: OVCAR-3 ovarian
94.3 µM: HOP-62 NSCLC
26.6 µM: HL-60(TB) leukemia
52 µM: RXF 393 renal
42.8 µM: DLD-1 colon
92.3 µM: TK-10 renal
99.2 µM: SNB-78 CNS
80.6 µM: DMS 273 small cell lung
83.6 µM: 786-0 renal
81.7 µM: HOP-92 NSCLC
43.7 µM: OVCAR-4 ovarian
26.9 µM: KM12 colon
> 100 µM: SK-MEL-2 melanoma | HCT-15 colon | XF 498 CNS | ACHN renal | K-562 leukemia | NCI-H460 lung | CCRF-CEM leukemia | COLO 205 colon | SK-OV-3 ovarian | SK-MEL-5 melanoma | MALME-3M melanoma | OVCAR-8 ovarian | NCI-H522 lung | IGROV1 ovarian | U251 CNS | RPMI-8226 leukemia | SF-295 CNS | OVCAR-5 ovarian | SF-539 CNS | RXF-631 renal | A549 NSCLC | UACC-62 melanoma | KM20L2 colon | SNB-19 CNS | HT29 colon | HCT-116 colon | SF-268 CNS | UO-31 renal | M14 melanoma | MOLT-4 leukemia | LOX IMVI melanoma | NCI-H23 lung | M19-MEL melanoma | SNB-75 CNS | A498 renal | HOP-18 NSCLC | SN12C renal

C#CCn1c(=O)[nH]c(=O)c2cccnc21
> 100 µM: SK-MEL-2 melanoma | HCT-15 colon | XF 498 CNS | OVCAR-4 ovarian | TK-10 renal | ACHN renal | HOP-92 NSCLC | CAKI-1 renal | LXFL 529 NSCLC | COLO 205 colon | SK-OV-3 ovarian | SK-MEL-5 melanoma | HL-60(TB) leukemia | MALME-3M melanoma | NCI-H522 lung | 786-0 renal | U251 CNS | RPMI-8226 leukemia | DLD-1 colon | SF-295 CNS | OVCAR-5 ovarian | RXF-631 renal | NCI-H226 lung | DMS 273 small cell lung | RXF 393 renal | A549 NSCLC | SR leukemia | KM20L2 colon | KM12 colon | SNB-19 CNS | HCT-116 colon | SF-268 CNS | HOP-62 NSCLC | M14 melanoma | HCC-2998 colon | MOLT-4 leukemia | SW-620 colon | LOX IMVI melanoma | NCI-H23 lung | SK-MEL-28 melanoma | SNB-78 CNS | SNB-75 CNS | HOP-18 NSCLC | UACC-257 melanoma | SN12C renal
